Measurements taken from patent US20230348475A1, “IMIDAZOPYRIDAZINE AND IMIDAZOPYRAZINE COMPOUNDS AS INHIBITORS OF CDK7” (THE TRANSLATIONAL GENOMICS RESEARCH INSTITUTE, priority 2020, published 2023).
Counter-ions that a name gives are not always drawn. Like-named read-outs stand apart in the source and are kept apart here.

How the values were obtained:
CDK7/CycH/MAT1 = CDK7/CycH/MAT1 (Homo sapiens, UniProt P50613); assay: Kinase Glo (ADP-Glo) biochemical assay, CDK7; conditions: CDK7/CycH/MAT1 40 ng, ATP 1 μM, 60 minutes at RT, luminescence
CDK7/CycH/MAT1, sequence (P50613 whole entry): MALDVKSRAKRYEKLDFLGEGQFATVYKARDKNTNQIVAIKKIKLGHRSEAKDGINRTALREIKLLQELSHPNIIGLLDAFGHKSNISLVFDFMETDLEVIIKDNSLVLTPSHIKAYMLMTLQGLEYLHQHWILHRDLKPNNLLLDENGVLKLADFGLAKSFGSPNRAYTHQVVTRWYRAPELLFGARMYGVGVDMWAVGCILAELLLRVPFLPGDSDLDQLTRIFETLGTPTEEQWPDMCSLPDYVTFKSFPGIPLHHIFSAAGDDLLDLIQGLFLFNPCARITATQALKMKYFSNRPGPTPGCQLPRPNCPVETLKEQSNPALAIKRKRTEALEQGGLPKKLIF
CDK7/CycH/MAT1, sequence (P51946 whole entry partner): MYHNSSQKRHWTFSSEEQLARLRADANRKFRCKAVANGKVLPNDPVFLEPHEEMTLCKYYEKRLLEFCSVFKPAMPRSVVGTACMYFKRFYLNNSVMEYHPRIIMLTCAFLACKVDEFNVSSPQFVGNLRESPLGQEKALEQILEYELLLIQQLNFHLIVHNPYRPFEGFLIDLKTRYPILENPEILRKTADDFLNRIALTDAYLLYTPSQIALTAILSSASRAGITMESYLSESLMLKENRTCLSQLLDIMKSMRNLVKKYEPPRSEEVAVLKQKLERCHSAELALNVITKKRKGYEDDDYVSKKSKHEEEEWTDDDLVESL
CDK7/CycH/MAT1, sequence (P51948 whole entry partner): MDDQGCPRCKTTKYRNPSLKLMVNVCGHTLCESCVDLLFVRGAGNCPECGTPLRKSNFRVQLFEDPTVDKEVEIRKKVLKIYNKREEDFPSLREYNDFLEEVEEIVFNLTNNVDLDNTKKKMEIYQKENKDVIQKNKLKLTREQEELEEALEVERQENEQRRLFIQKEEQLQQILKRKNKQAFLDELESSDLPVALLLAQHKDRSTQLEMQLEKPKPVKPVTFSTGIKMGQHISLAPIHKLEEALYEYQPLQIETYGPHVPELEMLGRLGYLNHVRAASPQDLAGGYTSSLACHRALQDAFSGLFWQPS
Method in brief: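 Enzyme (40 ng), RB-CTF peptide substrate (200 ng or 400 ng) and 1 μM ATP reacted in HEPES pH 7.5 buffer with MgCl2, MnCl2, DTT and Na3VO4 for 60 min at RT. Ten-point compound dilutions were tested from 30 μM final. ADP formed was read by ADP-Glo luminescence.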

MDA-MB468 cells = assay: Cell viability assay (Cell Titer Glo), MDA-MB468; format: cell-based; conditions: Homo sapiens, MDA-MB-468; Table 7b; 72 hour incubation
Procedure: (§1) Cell Viability Assay Materials: • Cell Lines (Treated according to ATCC guidelines) • Cell Titer Glo (Promega Cat #G7572) • DMSO • 96-well White Tissue Culture Treated Plates (Perkin Elmer Cat #60005680) Method: Cells were seeded in a white 96-well tissue culture treated plate at a density of 1500 cells in 90 μL of media per well and allowed to settle overnight. A ten point serial dilution of drugs was prepared at 10×concentration in media with the final assay concentrations starting at 30 μ[…] dilution of DMSO was included as a control. The assay was set up by adding 10 μL of the corresponding drug to each well in duplicate, followed by a 72 hour incubation at 37° C., 5% CO2. Cell viability was quantified by adding 90 μL of Cell Titer Glo to each well and incubating at room temperature for 10 minutes. The reaction was quantified by measuring luminescence using the Envision Plate Reader. Data was analyzed using Graphpad Prism 7 software.

[1] = test system: MDA-MB-231 breast cancer cell line; assay: Cell viability assay (Cell Titer Glo), MDA-MB-231; format: cell-based; conditions: Homo sapiens, MDA-MB-231, 72 hour incubation
Procedure: (§2) Materials: • Cell Lines (Treated according to ATCC guidelines) • Cell Titer Glo (Promega Cat #G7572) • DMSO • 96-well White Tissue Culture Treated Plates (Perkin Elmer Cat #60005680)
(§3) Cells were seeded in a white 96-well tissue culture treated plate at a density of 1500 cells in 90 μL of media per well and allowed to settle overnight. A ten point serial dilution of drugs was prepared at 10×concentration in media with the final assay concentrations starting at 30 μM, 10 μM, 3 μM, 1 μM, 0.3 μM . . . 0 μM. A dilution of DMSO was included as a control. The assay was set up by adding 10 μL of the corresponding drug to each well in duplicate, followed by a 72 hour incubation at 37° C., 5% CO2. Cell viability was quantified by adding 90 μL of Cell Titer Glo to each well and incubating at room temperature for 10 minutes. The reaction was quantified by measuring luminescence using the Envision Plate Reader. Data was analyzed using Graphpad Prism 7 software.

[2] = test system: HPAC pancreatic cancer cell line; assay: Cell viability assay (Cell Titer Glo), HPAC; format: cell-based; conditions: Homo sapiens, HPAC, 72 hour incubation
Procedure: as §2, §3

[3] = test system: MiaPaCa2 pancreatic cancer cell line; assay: Cell viability assay (Cell Titer Glo), MiaPaCa2; format: cell-based; conditions: Homo sapiens, MIA PaCa-2, 72 hour incubation
Procedure: as §2, §3

MDA-MB436 cells = assay: Cell viability assay (Cell Titer Glo), MDA-MB436; format: cell-based; conditions: Homo sapiens, MDA-MB-436; Table 7b; 72 hour incubation
Procedure: as §1

[4] = test system: A2780 ovarian cancer cell line; assay: Cell viability assay (Cell Titer Glo), A2780; format: cell-based; conditions: Homo sapiens, A2780, Table 7a, 72 hour incubation
Procedure: as §2, §3

[5] = test system: A673 Ewingsarcoma cell line; assay: Cell viability assay (Cell Titer Glo), A673; format: cell-based; conditions: Homo sapiens, A673, Table 7a, 72 hour incubation
Procedure: as §2, §3

[6] = test system: Kasumi1 leukemia cancer cell line; assay: Cell viability assay (Cell Titer Glo), Kasumi1; format: cell-based; conditions: Homo sapiens, Kasumi 1, Table 7a, 72 hour incubation
Procedure: as §2, §3

[7] = Table 7a, pancreatic cancer cell line

| IC50 (CDK7/CycH/MAT1) [nM] | IC50 (MDA-MB468 cells) [nM] | IC50 ([1]; Table 7b, read-out: IC50 MDA-MB231) [nM] | IC50 ([2]; Table 7b) [nM] | IC50 ([3]; Table 7b, read-out: IC50 MIA PaCa2) [nM] | IC50 (MDA-MB436 cells) [nM] | IC50 [4] [nM] | IC50 [5] [nM] | IC50 ([1]; Table 7a, breast cancer cell line) [nM] | IC50 [6] [nM] | IC50 [2, 7] [nM] | IC50 [3, 7] [nM] | SMILES |
| --- | --- | --- | --- | --- | --- | --- | --- | --- | --- | --- | --- | --- |
| < 100 | 1000 to 5000 | 1000 to 5000 | 1000 to 5000 | < 1000 | 1000 to 5000 | – | – | – | – | – | – | Fc1cccc(Nc2cc(O[C@H]3CCCNC3)nn3c(C4CC4)cnc23)c1 [Compound I-1] |
| < 100 | – | – | – | – | – | 1000 to 5000 | 1000 to 5000 | 1000 to 5000 | 1000 to 5000 | 1000 to 5000 | 1000 to 5000 | CC(C)c1cnc2c(NCc3ccccc3OC(F)(F)F)cc(OC3CCNCC3)nn12 [Compound 43, 3-isopropyl-6-(piperidin-4-yloxy)-N-(2-(trifluoromethoxy)benzyl)imidazo[1,2-b]pyridazin-8-amine hydrochloride] |
